This assay has as its target T1, PTPase from thermus thermophilus HB27 (Thermus thermophilus, UniProt Q72JF6).
T1 construct: gene TT_C0816; recombinant, cloned into pET-28a(+), E. coli BL21(DE3), purified; LMW PTPase EC 3.1.3.48; P-loop CLGNICRS, residues Cys11, Cys16, Arg17, Asp123 (Tt1001)
T1 sequence (Q72JF6 1-161): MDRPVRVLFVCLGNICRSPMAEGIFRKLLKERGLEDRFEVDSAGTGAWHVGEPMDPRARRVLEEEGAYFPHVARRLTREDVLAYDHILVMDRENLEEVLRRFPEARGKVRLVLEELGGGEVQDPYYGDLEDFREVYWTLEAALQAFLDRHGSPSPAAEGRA
As to the kind of experiment: residual pNPP phosphatase activity, absorbance […] nm. The assay is classed as biochemical.

What is called IC50 is the midpoint of a concentration-inhibition curve. Read a high IC50 as lower potency. With `CCCCCCCCCCCCOS(=O)(=O)O` [SDS], inhibition was half-maximal at 11.3 µM (IC50).

For the origin of these results see PMC7035334, “Effects of SDS on the activity and conformation of protein tyrosine phosphatase from thermus thermophilus HB27” (Scientific Reports, 2020).
